Our source for the CC50 values is PMC6792352, “Limited Chemical Structural Diversity Found to Modulate Thyroid Hormone Receptor in the Tox21 Chemical Library” (Environmental Health Perspectives, 2019).

Where a name gives a salt, the structure may show the parent alone. Positions of bridges follow the written chain, without caps; N, C: chain ends. Non-standard residues stand in square brackets, D forms with d. Residues, ends and D or L forms follow the SMILES beside them. Orn = NCCC[C@H](N)C(=O)O; Mpa = O=C(O)CCS

One data set can be described thus: in vitro. As to conditions: rat, gh3-tre-luc cells, AC50 (uM) modified / 1000.
As for `COc1ccc(C2C(=O)c3ccccc3C2=O)cc1` [Anisindione], the CC50 at 24 h is > 50 µM.

Turning to `CCCC(CCC)C(=O)OC1C[C@H]2CC[C@@H](C1)[N+]2(C)C` (stereo partly shown) [Anisotropine methylbromide], the CC50 at 24 h is > 50 µM.

As for `CCC(=O)OCc1ccc(OC)cc1` [Anisyl propionate], the CC50 at 24 h is > 90 µM.

Regarding `Clc1cccc(SC2CCNCC2)n1` [Anpirtoline], the CC50 at 24 h was > 50 µM.

`c1ccc(CN(CC2=NCCN2)c2ccccc2)cc1` [Antazoline hydrochloride] gave a CC50 at 24 h of 21.1 µM.

`c1ccc2cc3ccccc3cc2c1` [Anthracene]: the CC50 at 24 h is > 90 µM.

Turning to `O=C1c2c(O)cccc2Cc2cccc(O)c21` [Anthralin], the cytotoxic concentration (CC50) at 24 h is > 90 µM.

As to `O=C1c2ccccc2C(=O)c2ccccc21` [Anthraquinone], the CC50 at 24 h was > 50 µM.

Compound `O=C1c2ccccc2Cc2ccccc21` [Anthrone] gave a CC50 at 24 h of 13.5 µM. This lies in the double-digit micromolar range.

`Cc1nnc2n1-c1sc(CCC(=O)N3CCOCC3)cc1C(c1ccccc1Cl)=NC2` [Apafant]: the CC50 at 24 h is > 50 µM.

In the case of `CCCCN1C(=O)[C@@H]([C@H](O)C2CCCCC2)NC(=O)C12CCN(Cc1ccc(Oc3ccc(C(=O)O)cc3)cc1)CC2` [Aplaviroc hydrochloride], the CC50 at 24 h was determined as 77.3 µM.

Turning to `Nc1cc(Cl)c(N=C2NCCN2)c(Cl)c1` [Apraclonidine hydrochloride], the CC50 at 24 h is > 50 µM.

Turning to `CN[C@@H]1[C@@H](O[C@H]2O[C@H](CO)[C@@H](N)[C@H](O)[C@H]2O)O[C@H]2C[C@@H](N)[C@@H](O[C@H]3[C@H](O)[C@@H](O)[C@H](N)C[C@@H]3N)O[C@@H]2[C@@H]1O` [Apramycin], the CC50 at 24 h is > 20 µM.

Regarding `C[C@@H](O[C@H]1OCCN(Cc2n[nH]c(=O)[nH]2)[C@H]1c1ccc(F)cc1)c1cc(C(F)(F)F)cc(C(F)(F)F)c1` [Aprepitant], the CC50 at 24 h was 11 µM.

Compound `CCN(CC)CCCN(c1ccccc1)C1Cc2ccccc2C1` [Aprindine hydrochloride] returned a CC50 at 24 h of 2.3 µM.

For the compound `CCc1cccc(N(C)C(N)=Nc2cccc3ccccc23)c1` [Aptiganel hydrochloride], the CC50 at 24 h turned out to be 19.6 µM.

For `COC(=O)C1=C(C)NC(C)=C(C(=O)OCC(C)=O)C1c1ccccc1[N+](=O)[O-]` (stereo not shown) [Aranidipine], the CC50 at 24 h stood at 8.18 µM.

Consider `NCC[C@H](O)C(=O)N[C@@H]1C[C@H](N)[C@@H](O[C@H]2O[C@H](CN)CC[C@H]2N)[C@H](O)[C@H]1O[C@H]1O[C@H](CO)[C@@H](O)[C@H](N)[C@H]1O` [Arbekacin sulfate], for which the CC50 at 24 h is > 50 µM.

`OC[C@H]1O[C@@H](Oc2ccc(O)cc2)[C@H](O)[C@@H](O)[C@@H]1O` [Arbutin]: the CC50 at 24 h was > 90 µM.

With `CC1CNc2c(cccc2S(=O)(=O)N[C@@H](CCCNC(=N)N)C(=O)N2CC[C@@H](C)C[C@@H]2C(=O)O)C1` (stereo partly shown) [Argatroban], the CC50 at 24 h was > 50 µM.

Regarding `NC(=O)CC[C@@H]1NC(=O)[C@H](Cc2ccccc2)NC(=O)[C@H](Cc2ccc(O)cc2)NC(=O)[C@@H](N)CSSC[C@@H](C(=O)N2CCC[C@H]2C(=O)N[C@@H](CCCN=C(N)N)C(=O)NCC(N)=O)NC(=O)[C@H](CC(N)=O)NC1=O` [Argipressin acetate], the half-maximal cytotoxic concentration (CC50) at 24 h is > 50 µM.

`O=C1CCc2ccc(OCCCCN3CCN(c4cccc(Cl)c4Cl)CC3)cc2N1` [Aripiprazole] gave a cytotoxic concentration (CC50) at 24 h of 11.8 µM.

As to `Clc1cccc(-c2cc(Cl)cc(Cl)c2)c1` [Aroclor 1016], the CC50 at 24 h is > 90 µM.

On to `Clc1ccc(-c2ccc(Cl)c(Cl)c2Cl)c(Cl)c1Cl` [Aroclor 1260], for which the CC50 at 24 h was > 90 µM.

On to `CC(C)(C)NCC(O)CSc1nc(-c2ccc(C(N)=O)s2)cs1` (stereo not shown) [Arotinolol hydrochloride], for which the CC50 at 24 h is > 50 µM.

Regarding `CO[C@H]1O[C@@H]2O[C@@]3(C)CC[C@H]4[C@H](C)CC[C@@H]([C@H]1C)[C@@]24OO3` [Artemether], the CC50 at 24 h is > 50 µM.

In turn, `C[C@@H]1CC[C@H]2[C@@H](C)C(=O)O[C@@H]3O[C@@]4(C)CC[C@@H]1[C@]32OO4` [Artemisinin] registered a 50% cytotoxic concentration (CC50) at 24 h of 4.4 µM.

In turn, `C[C@H]1[C@H](O)O[C@@H]2O[C@@]3(C)CC[C@H]4[C@H](C)CC[C@@H]1[C@@]24OO3` [Artenimol] registered a CC50 at 24 h of 1.39 µM.

With `C[C@H]1[C@H](OC(=O)CCC(=O)O)O[C@@H]2O[C@@]3(C)CC[C@H]4[C@H](C)CC[C@@H]1[C@@]24OO3` [Artesunate], the CC50 at 24 h amounted to 2.69 µM.

`CCCNC(C)C(=O)Nc1c(C)csc1C(=O)OC` (stereo not shown) [Articaine hydrochloride]: the CC50 at 24 h was > 20 µM.

For the compound `CCCCCCCCCCCCCCCC(=O)OC[C@H](O)[C@H]1OC(=O)C(O)=C1O` [Ascorbyl palmitate], the CC50 at 24 h was > 50 µM.

Take `COC(=O)[C@H](Cc1ccccc1)NC(=O)[C@@H](N)CC(=O)O` [Aspartame] (H-Asp-Phe-OMe): the CC50 at 24 h is > 90 µM.

Consider `CC(=O)Oc1ccccc1C(=O)O` [Aspirin], for which the CC50 at 24 h is > 90 µM.

For `CNC(=O)C[C@@H](N)C(=O)N[C@@H](C(=O)N[C@@H]1C(=O)N2[C@@H]1SC(C)(C)[C@@H]2C(=O)O)c1ccc(O)cc1` [Aspoxicillin], the CC50 at 24 h is > 50 µM.

Regarding `CO[C@H]1[C@@H](O)[C@H](N)[C@@H](O[C@H]2O[C@H]([C@H](C)N)CC[C@H]2N)[C@H](O)[C@@H]1N(C)C(=O)CN` [Astromicin], the CC50 at 24 h is > 50 µM.

Regarding `COC(=O)NS(=O)(=O)c1ccc(N)cc1` [Asulam], the CC50 at 24 h is > 90 µM.

With `O=C(Nc1ccc(S(=O)(=O)N2CCOCC2)cc1)c1cc(Cl)ccc1NS(=O)(=O)c1ccc(Cl)s1` [Ataciguat], the CC50 at 24 h worked out at 24 µM.

With `O=C(O)c1cccc(-c2noc(-c3ccccc3F)n2)c1` [Ataluren], the CC50 at 24 h is > 50 µM.

With `COC(=O)N[C@H](C(=O)N[C@@H](Cc1ccccc1)[C@@H](O)CN(Cc1ccc(-c2ccccn2)cc1)NC(=O)[C@@H](NC(=O)OC)C(C)(C)C)C(C)(C)C` [Atazanavir], the CC50 at 24 h is > 50 µM.

Take `CCC1(c2cnc[nH]2)Cc2ccccc2C1` [Atipamezole hydrochloride]: the CC50 at 24 h is > 50 µM.

In turn, `CNCC[C@@H](Oc1ccccc1C)c1ccccc1` [Atomoxetine hydrochloride] registered a CC50 at 24 h of 44.9 µM. That is a double-digit micromolar value.

Regarding `CCOc1ccc(C[C@H]2NC(=O)CCSSC[C@@H](C(=O)N3CCC[C@H]3C(=O)N[C@@H](CCCN)C(=O)NCC(N)=O)NC(=O)[C@H](CC(N)=O)NC(=O)[C@H]([C@@H](C)O)NC(=O)[C@H]([C@@H](C)CC)NC2=O)cc1` [Atosiban] ([Mpa][dY](Et)ITNCP[Orn]G-NH2; disulfide 1-6), the 50% cytotoxic concentration (CC50) at 24 h is > 50 µM.

For `O=C1C(O)=C([C@H]2CC[C@H](c3ccc(Cl)cc3)CC2)C(=O)c2ccccc21` [Atovaquone], the CC50 at 24 h came out at 8.49 µM.

For `COc1ccc(C[C@@H]2c3cc(OC)c(OC)cc3CC[N@+]2(C)CCC(=O)OCCCCCOC(=O)CC[N@@+]2(C)CCc3cc(OC)c(OC)cc3[C@H]2Cc2ccc(OC)c(OC)c2)cc1OC` [Atracurium besylate], the CC50 at 24 h was > 20 µM.

As for `CCNc1nc(NC(C)C)nc(OC)n1` [Atraton], the CC50 at 24 h was > 90 µM.

Staying with this data set, now noted: rat, gh3-tre-luc cells, AC50 (uM) modified / 1000, Tox21_110001=Tox21_110079; viability, 1 nM T3 present, 24 h.
`COC(=O)C1=CCCN(C)C1` [Arecoline]: the CC50 at 24 h was > 50 µM.

Staying with this data set, now noted: rat, gh3-tre-luc cells, AC50 (uM) modified / 1000, Tox21_110001=Tox21_111095; viability, 1 nM T3 present, 24 h.
In the case of `Nc1ccccc1C(=O)O` [Anthranilic acid], the CC50 at 24 h was > 50 µM.

Still in this data set, the particulars now being: rat, gh3-tre-luc cells, AC50 (uM) modified / 1000, Tox21_110001=Tox21_111979; viability, 1 nM T3 present, 24 h.
`CCN(CC)CCOC(=O)C(C)(c1ccccc1)c1ccccc1` [Aprofene] had a CC50 at 24 h of 15.4 µM.

Staying with this data set, now noted: rat, gh3-tre-luc cells, AC50 (uM) modified / 1000, Tox21_110001=Tox21_200703; viability, 1 nM T3 present, 24 h.
For `Nc1ccccc1C(=O)O` [Anthranilic acid], the CC50 at 24 h was > 90 µM.

One may read the CC50 as the concentration at which the toxic effect on the cells reaches its halfway point. Low values mean greater toxicity to the cells, high ones lower toxicity to the cells.
